# Test results as given in patent US9932340B2, “Substituted indoles” (AbbVie Inc., priority 2014, dated 2018).
# Molecular target: SUV420H1 enzyme (Homo sapiens, UniProt Q4FZB7)
# Assay: TR-FRET SAH SUV420H1 enzyme inhibition assay
# Assay type: biochemical
# Settings: Histone Peptide H4(8-30)me1 and SAM, overnight at room temp, TR-FRET detection of SAH, read-out: TR-FRET SAH_SUV420H1 IC50
# How it was run: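 SUV420H1 (90 nM) preincubated 30 min with compound (3-fold dilutions, 50 to 0.00075 μM), then H4(8-30)me1 peptide 5 nM and SAM 4 nM added, overnight at room temp. SAH product detected by TR-FRET with Tb anti-SAH antibody and Oregon Green-SAH in RIPA buffer, 4 h; IC50 from Hill fit, asymptotes fixed 0-100%.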
# SUV420H1 enzyme, sequence (Q4FZB7 whole entry): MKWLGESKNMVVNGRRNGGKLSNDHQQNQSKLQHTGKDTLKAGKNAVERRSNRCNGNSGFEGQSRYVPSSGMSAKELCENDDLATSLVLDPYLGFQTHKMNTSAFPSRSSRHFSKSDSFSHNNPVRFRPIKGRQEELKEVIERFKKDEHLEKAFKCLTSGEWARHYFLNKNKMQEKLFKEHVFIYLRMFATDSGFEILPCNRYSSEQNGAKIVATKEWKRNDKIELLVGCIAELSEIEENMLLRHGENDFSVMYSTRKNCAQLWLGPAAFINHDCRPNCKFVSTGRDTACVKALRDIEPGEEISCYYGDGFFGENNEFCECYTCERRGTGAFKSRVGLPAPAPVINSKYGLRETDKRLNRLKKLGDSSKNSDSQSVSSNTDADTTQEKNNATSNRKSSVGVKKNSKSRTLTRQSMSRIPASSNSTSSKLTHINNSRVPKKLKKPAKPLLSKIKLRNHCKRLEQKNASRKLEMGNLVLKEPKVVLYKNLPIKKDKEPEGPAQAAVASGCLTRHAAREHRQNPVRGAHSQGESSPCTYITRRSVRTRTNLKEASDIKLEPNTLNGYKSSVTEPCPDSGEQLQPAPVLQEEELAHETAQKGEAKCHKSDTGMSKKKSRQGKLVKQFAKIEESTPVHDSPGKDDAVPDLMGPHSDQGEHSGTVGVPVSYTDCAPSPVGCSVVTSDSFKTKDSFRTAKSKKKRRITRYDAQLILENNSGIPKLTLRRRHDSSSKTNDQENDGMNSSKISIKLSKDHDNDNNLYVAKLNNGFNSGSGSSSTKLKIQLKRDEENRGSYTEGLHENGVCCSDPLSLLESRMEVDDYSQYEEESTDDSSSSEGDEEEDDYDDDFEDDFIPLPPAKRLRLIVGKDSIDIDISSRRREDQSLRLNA
row,IC50 [µM],SMILES
1,17,"CC1(C(=O)NCc2cc3cc(Cl)cc(Cn4cnc5c(N)ncnc54)c3[nH]2)CC1 [Example 108, N-({7-[(6-amino-9H-purin-9-yl)methyl]-5-chloro-1H-indol-2-yl}methyl)-1-methylcyclopropanecarboxamide]"
2,10.6,"CC1CC1C(=O)NCc1cc2cc(Cl)cc(Cn3cnc4c(N)ncnc43)c2[nH]1 (centres unmarked) [Example 109, N-({7-[(6-amino-9H-purin-9-yl)methyl]-5-chloro-1H-indol-2-yl}methyl)-2-methylcyclopropanecarboxamide]"
3,10.7,"Nc1ncnc2c1ncn2Cc1cc(Cl)cc2cc(CNC(=O)CC3CC3)[nH]c12 [Example 110, N-({7-[(6-amino-9H-purin-9-yl)methyl]-5-chloro-1H-indol-2-yl}methyl)-2-cyclopropylacetamide]"
4,8.8,"Nc1ncnc2c1ncn2Cc1cc(Cl)cc2cc(CNC(=O)C3CCC3)[nH]c12 [Example 111, N-({7-[(6-amino-9H-purin-9-yl)methyl]-5-chloro-1H-indol-2-yl}methyl)cyclobutanecarboxamide]"
5,32,"Nc1ncnc2c1ncn2Cc1cc(Cl)cc2cc(CNC(=O)C3(O)CCC3)[nH]c12 [Example 112, N-({7-[(6-amino-9H-purin-9-yl)methyl]-5-chloro-1H-indol-2-yl}methyl)-1-hydroxycyclobutanecarboxamide]"
6,> 50,"Nc1ncnc2c1ncn2Cc1cc(Cl)cc2cc(CNC(=O)C3CCCO3)[nH]c12 (centres unmarked) [Example 113, N-({7-[(6-amino-9H-purin-9-yl)methyl]-5-chloro-1H-indol-2-yl}methyl)tetrahydrofuran-2-carboxamide]"
7,8.16,"Nc1ncnc2c1ncn2Cc1cc(Cl)cc2cc(CNC(=O)C3CCOC3)[nH]c12 (centres unmarked) [Example 114, N-({7-[(6-amino-9H-purin-9-yl)methyl]-5-chloro-1H-indol-2-yl}methyl)tetrahydrofuran-3-carboxamide]"
8,3.53,"Nc1ncnc2c1ncn2Cc1cc(Cl)cc2cc(CNC(=O)[C@@H]3CCCN3)[nH]c12 [Example 115, (2S)—N-({7-[(6-amino-9H-purin-9-yl)methyl]-5-chloro-1H-indol-2-yl}methyl)pyrrolidine-2-carboxamide]"
9,8.28,"Nc1ncnc2c1ncn2Cc1cc(Cl)cc2cc(CNC(=O)[C@H]3CCCN3)[nH]c12 [Example 116, (2R)—N-({7-[(6-amino-9H-purin-9-yl)methyl]-5-chloro-1H-indol-2-yl}methyl)pyrrolidine-2-carboxamide]"
10,14.1,"Nc1ncnc2c1ncn2Cc1cc(Cl)cc2cc(CNC(=O)[C@@H]3CCC(=O)N3)[nH]c12 [Example 117, (2S)—N-({7-[(6-amino-9H-purin-9-yl)methyl]-5-chloro-1H-indol-2-yl}methyl)-5-oxopyrrolidine-2-carboxamide]"
11,18.4,"Nc1ncnc2c1ncn2Cc1cc(Cl)cc2cc(CNC(=O)[C@H]3CCC(=O)N3)[nH]c12 [Example 118, (2R)—N-({7-[(6-amino-9H-purin-9-yl)methyl]-5-chloro-1H-indol-2-yl}methyl)-5-oxopyrrolidine-2-carboxamide]"
12,6.41,"Nc1ncnc2c1ncn2Cc1cc(Cl)cc2cc(CNC(=O)C3CCCC3)[nH]c12 [Example 119, N-({7-[(6-amino-9H-purin-9-yl)methyl]-5-chloro-1H-indol-2-yl}methyl)cyclopentanecarboxamide]"
13,1.49,"Nc1ncnc2c1ncn2Cc1cc(Cl)cc2cc(CNC(=O)CN3CCCC3)[nH]c12 [Example 120, N-({7-[(6-amino-9H-purin-9-yl)methyl]-5-chloro-1H-indol-2-yl}methyl)-2-(pyrrolidin-1-yl)acetamide]"
14,2.56,"Nc1ncnc2c1ncn2Cc1cc(Cl)cc2cc(CNC(=O)CC3CCCC3)[nH]c12 [Example 121, N-({7-[(6-amino-9H-purin-9-yl)methyl]-5-chloro-1H-indol-2-yl}methyl)-2-cyclopentylacetamide]"
15,4.77,"Nc1ncnc2c1ncn2Cc1cc(Cl)cc2cc(CNC(=O)CCN3CCCC3)[nH]c12 [Example 122, N-({7-[(6-amino-9H-purin-9-yl)methyl]-5-chloro-1H-indol-2-yl}methyl)-3-(pyrrolidin-1-yl)propanamide]"
16,44.9,"CC(C)(C)OC(=O)N1CCC[C@H]1C(=O)NCc1cc2cc(Cl)cc(Cn3cnc4c(N)ncnc43)c2[nH]1 [Example 123, tert-butyl (2S)-2-[({7-[(6-amino-9H-purin-9-yl)methyl]-5-chloro-1H-indol-2-yl}methyl)carbamoyl]pyrrolidine-1-carboxylate]"
17,23.9,"CC(C)(C)OC(=O)N1CCC[C@@H]1C(=O)NCc1cc2cc(Cl)cc(Cn3cnc4c(N)ncnc43)c2[nH]1 [Example 124, tert-butyl (2R)-2-[({7-[(6-amino-9H-purin-9-yl)methyl]-5-chloro-1H-indol-2-yl}methyl)carbamoyl]pyrrolidine-1-carboxylate]"
18,4.62,"Nc1ncnc2c1ncn2Cc1cc(Cl)cc2cc(CN3CCS(=O)(=O)CC3)[nH]c12 [Example 125, 9-({5-chloro-2-[(1,1-dioxidothiomorpholin-4-yl)methyl]-1H-indol-7-yl}methyl)-9H-purin-6-amine]"

row,IC50 [µM],SMILES
1,2.23,"Nc1ncnc2c1ncn2Cc1cc(Cl)cc2cc(CNC(=O)C3CCOCC3)[nH]c12 [Example 126, N-({7-[(6-amino-9H-purin-9-yl)methyl]-5-chloro-1H-indol-2-yl}methyl)tetrahydro-2H-pyran-4-carboxamide]"
2,6,"Nc1ncnc2c1ncn2Cc1cc(Cl)cc2cc(CNC(=O)CN3CCOCC3)[nH]c12 [Example 127, N-({7-[(6-amino-9H-purin-9-yl)methyl]-5-chloro-1H-indol-2-yl}methyl)-2-(morpholin-4-yl)acetamide]"
3,3.34,"Nc1ncnc2c1ncn2Cc1cc(Cl)cc2cc(CNC(=O)C3CCCCC3)[nH]c12 [Example 128, N-({7-[(6-amino-9H-purin-9-yl)methyl]-5-chloro-1H-indol-2-yl}methyl)cyclohexanecarboxamide]"
4,28.4,"CC1(C(=O)NCc2cc3cc(Cl)cc(Cn4cnc5c(N)ncnc54)c3[nH]2)CCCCC1 [Example 129, N-({7-[(6-amino-9H-purin-9-yl)methyl]-5-chloro-1H-indol-2-yl}methyl)-1-methylcyclohexanecarboxamide]"
5,2.39,"CC1CCC(C(=O)NCc2cc3cc(Cl)cc(Cn4cnc5c(N)ncnc54)c3[nH]2)CC1 (centres unmarked) [Example 130, N-({7-[(6-amino-9H-purin-9-yl)methyl]-5-chloro-1H-indol-2-yl}methyl)-4-methylcyclohexanecarboxamide]"
6,3.23,"CC1CCCC(C(=O)NCc2cc3cc(Cl)cc(Cn4cnc5c(N)ncnc54)c3[nH]2)C1 (centres unmarked) [Example 131, N-({7-[(6-amino-9H-purin-9-yl)methyl]-5-chloro-1H-indol-2-yl}methyl)-3-methylcyclohexanecarboxamide]"
7,6.25,"CC1CCCCC1C(=O)NCc1cc2cc(Cl)cc(Cn3cnc4c(N)ncnc43)c2[nH]1 (centres unmarked) [Example 132, N-({7-[(6-amino-9H-purin-9-yl)methyl]-5-chloro-1H-indol-2-yl}methyl)-2-methylcyclohexanecarboxamide]"
8,31.9,"Nc1ncnc2c1ncn2Cc1cc(Cl)cc2cc(CNC(=O)CC3CCCCC3)[nH]c12 [Example 133, N-({7-[(6-amino-9H-purin-9-yl)methyl]-5-chloro-1H-indol-2-yl}methyl)-2-cyclohexylacetamide]"
9,1.27,"COC1CCC(C(=O)NCc2cc3cc(Cl)cc(Cn4cnc5c(N)ncnc54)c3[nH]2)CC1 (centres unmarked) [Example 134, N-({7-[(6-amino-9H-purin-9-yl)methyl]-5-chloro-1H-indol-2-yl}methyl)-4-methoxycyclohexanecarboxamide]"
10,4.54,"Nc1ncnc2c1ncn2Cc1cc(Cl)cc2cc(CNC(=O)CCN3CCCCC3)[nH]c12 [Example 135, N-({7-[(6-amino-9H-purin-9-yl)methyl]-5-chloro-1H-indol-2-yl}methyl)-3-(piperidin-1-yl)propanamide]"
11,10.5,"Nc1ncnc2c1ncn2Cc1cc(Cl)cc2cc(CNC(=O)C34CC5CC(CC(C5)C3)C4)[nH]c12 [Example 136, N-({7-[(6-amino-9H-purin-9-yl)methyl]-5-chloro-1H-indol-2-yl}methyl)tricyclo[3.3.1.1^3,7]decane-1-carboxamide]"
12,2.04,"Nc1ncnc2c1ncn2Cc1cc(Cl)cc2cc(CNC(=O)c3ccns3)[nH]c12 [Example 137, N-({7-[(6-amino-9H-purin-9-yl)methyl]-5-chloro-1H-indol-2-yl}methyl)-1,2-thiazole-5-carboxamide]"
13,1.64,"Nc1ncnc2c1ncn2Cc1cc(Cl)cc2cc(CNC(=O)c3cncs3)[nH]c12 [Example 138, N-({7-[(6-amino-9H-purin-9-yl)methyl]-5-chloro-1H-indol-2-yl}methyl)-1,3-thiazole-5-carboxamide]"
14,0.767,"Nc1ncnc2c1ncn2Cc1cc(Cl)cc2cc(CNC(=O)c3cnsc3)[nH]c12 [Example 139, N-({7-[(6-amino-9H-purin-9-yl)methyl]-5-chloro-1H-indol-2-yl}methyl)-1,2-thiazole-4-carboxamide]"
15,6.09,"Nc1ncnc2c1ncn2Cc1cc(Cl)cc2cc(CNC(=O)c3cscn3)[nH]c12 [Example 140, N-({7-[(6-amino-9H-purin-9-yl)methyl]-5-chloro-1H-indol-2-yl}methyl)-1,3-thiazole-4-carboxamide]"
16,0.783,"Nc1ncnc2c1ncn2Cc1cc(Cl)cc2cc(CNC(=O)c3cnoc3)[nH]c12 [Example 141, N-({7-[(6-amino-9H-purin-9-yl)methyl]-5-chloro-1H-indol-2-yl}methyl)-1,2-oxazole-4-carboxamide]"
17,9.48,"Nc1ncnc2c1ncn2Cc1cc(Cl)cc2cc(CNC(=O)c3ccn[nH]3)[nH]c12 [Example 142, N-({7-[(6-amino-9H-purin-9-yl)methyl]-5-chloro-1H-indol-2-yl}methyl)-1H-pyrazole-5-carboxamide]"
